Experimental data: the supplement of paper PMC12646585

System: TK6
Experiment: relative viability (MTT, 20-24 h post-exposure) vs solvent control; higher = less cytotoxic
Conditions: exposure time: 4 h (S9 compounds: 3 h + 4 h recovery)
Method: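 Human TK6 lymphoblastoid cells were exposed for 4 h to three concentrations of each compound at four ring-trial labs. Compounds P, Q, R and CC were given for 3 h with rat liver S9 plus 4 h recovery. Relative survival was measured by MTT assay 20-24 h after exposure, as % viability relative to solvent control (mean with SD), in the Result 1 round with preselected concentrations.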

O=[N+]([O-])c1ccc(O)c([N+](=O)[O-])c1 [2,4-Dinitrophenol]
relative viability [%]
Conditions | batch: 3, lab: Lab 1 | batch: 3, lab: Lab 2 | batch: 3, lab: Lab 3 | batch: 3, lab: Lab 4
concentration: 0.11mM | 92.2 | 98.2 | 71.1 | 97.7
concentration: 0.33mM | 84.7 | 85 | 67.4 | 98.6
concentration: 1mM | 58.6 | 37.2 | 63.9 | 99.4

Nc1ccc2cc3ccccc3cc2c1 [2-Aminoanthracene]
relative viability [%]
Conditions | batch: 4, lab: Lab 1 | batch: 4, lab: Lab 2 | batch: 4, lab: Lab 3 | batch: 4, lab: Lab 4
concentration: 0.22ug/mL | 95.8 | 97.3 | 102 | 96.3
concentration: 0.67ug/mL | 94.8 | 87.8 | 95.5 | 93.5
concentration: 2ug/mL | 47 | 16.8 | 23.1 | 9.75

CC1(C)S[C@@H]2[C@H](NC(=O)[C@H](N)c3ccccc3)C(=O)N2[C@H]1C(=O)O [Ampicillin]
relative viability [%]
Conditions | batch: 1, lab: Lab 1 | batch: 1, lab: Lab 2 | batch: 1, lab: Lab 3 | batch: 1, lab: Lab 4
concentration: 0.11mM | 102 | 104 | 115 | 127
concentration: 0.33mM | 94.9 | 115 | 123 | 126
concentration: 1mM | 99.9 | 98.3 | 121 | 112

c1ccc2c(c1)cc1ccc3cccc4ccc2c1c34 [Benzo[a]pyrene]
concentration: 10ug/mL
Conditions | relative viability [%]
batch: 4, lab: Lab 1 | 67.8
batch: 4, lab: Lab 2 | 35.7
batch: 4, lab: Lab 3 | 66.3
batch: 4, lab: Lab 4 | 75

Cc1c(N)nc(C(CC(N)=O)NCC(N)C(N)=O)nc1C(=O)NC(C(=O)NC(C)C(O)C(C)C(=O)NC(C(=O)NCCc1nc(-c2nc(C(=O)NCCC[S+](C)C)cs2)cs1)C(C)O)C(O[C@@H]1O[C@@H](CO)[C@@H](O)[C@H](O)[C@@H]1O[C@H]1O[C@H](CO)[C@@H](O)[C@H](OC(N)=O)[C@@H]1O)c1cnc[nH]1.O=S(=O)([O-])O (some centres undefined) [Bleomycin (sulfate)]
Conditions | relative viability [%]
concentration: 5ug/mL, batch: 2, lab: Lab 1 | 80.5
concentration: 5ug/mL, batch: 2, lab: Lab 2 | 53.4
concentration: 5ug/mL, batch: 2, lab: Lab 3 | 51
concentration: 5ug/mL, batch: 2, lab: Lab 4 | 56.4
concentration: 5ug/mL, batch: 3, lab: Lab 1 | 78
concentration: 5ug/mL, batch: 3, lab: Lab 2 | 66
concentration: 5ug/mL, batch: 3, lab: Lab 3 | 49.7
concentration: 5ug/mL, batch: 3, lab: Lab 4 | 54.6
concentration: 10ug/mL, batch: 1, lab: Lab 1 | 41.8
concentration: 10ug/mL, batch: 1, lab: Lab 2 | 59.6
concentration: 10ug/mL, batch: 1, lab: Lab 3 | 53
concentration: 10ug/mL, batch: 1, lab: Lab 4 | 50.6

Cn1c(=O)c2c(ncn2C)n(C)c1=O [Caffeine]
concentration: 2mM
Conditions | relative viability [%]
batch: 1, lab: Lab 1 | 94.7
batch: 1, lab: Lab 2 | 86.4
batch: 1, lab: Lab 3 | 108
batch: 1, lab: Lab 4 | 98.2
batch: 2, lab: Lab 1 | 96.7
batch: 2, lab: Lab 2 | 80.1
batch: 2, lab: Lab 3 | 88.9
batch: 2, lab: Lab 4 | 100
batch: 3, lab: Lab 1 | 96.4
batch: 3, lab: Lab 2 | 92.5
batch: 3, lab: Lab 3 | 107
batch: 3, lab: Lab 4 | 92.6

O=C(O)CCCc1ccc(N(CCCl)CCCl)cc1 [Chlorambucil]
relative viability [%]
Conditions | batch: 3, lab: Lab 1 | batch: 3, lab: Lab 2 | batch: 3, lab: Lab 3 | batch: 3, lab: Lab 4
concentration: 0.44uM | 95.2 | 84.9 | 80.8 | 97.2
concentration: 1.33uM | 89.6 | 95.9 | 74.1 | 92.3
concentration: 4uM | 78.9 | 71.7 | 67.2 | 75.3

C[C@@H]1C[C@@H]([C@H](O)CC2CC(=O)NC(=O)C2)C(=O)[C@@H](C)C1 [Cycloheximide]
relative viability [%]
Conditions | batch: 1, lab: Lab 1 | batch: 1, lab: Lab 2 | batch: 1, lab: Lab 3 | batch: 1, lab: Lab 4
concentration: 1.11uM | 89.7 | 85.7 | 94.1 | 86.8
concentration: 3.33uM | 64 | 65.6 | 72.2 | 69.7
concentration: 10uM | 49.4 | 46.1 | 41.3 | 57.4

O.O=P1(N(CCCl)CCCl)NCCCO1 (centres undefined) [Cyclophosphamide]
relative viability [%]
Conditions | batch: 4, lab: Lab 1 | batch: 4, lab: Lab 2 | batch: 4, lab: Lab 3 | batch: 4, lab: Lab 4
concentration: 2.22uM | 103 | 94.2 | 157 | 80.3
concentration: 6.67uM | 96.49 | 69 | 107 | 81.7
concentration: 20uM | 90.45 | 47.2 | 73.4 | 58.4

OC[C@@H](O)[C@@H](O)[C@H](O)[C@H](O)CO [D-Mannitol]
relative viability [%]
Conditions | batch: 1, lab: Lab 1 | batch: 1, lab: Lab 2 | batch: 1, lab: Lab 3 | batch: 1, lab: Lab 4
concentration: 0.11mM | 90 | 97 | 145 | 110
concentration: 0.33mM | 98.7 | 104 | 137 | 107
concentration: 1mM | 103 | 104 | 139.3 | 107

C[C@@H]1C[C@H]2[C@@H]3CCC4=CC(=O)C=C[C@]4(C)[C@@]3(F)[C@@H](O)C[C@]2(C)[C@@]1(O)C(=O)CO [Dexamethasone]
relative viability [%]
Conditions | batch: 3, lab: Lab 1 | batch: 3, lab: Lab 2 | batch: 3, lab: Lab 3 | batch: 3, lab: Lab 4
concentration: 0.11mM | 105 | 103 | 127 | 112
concentration: 0.33mM | 101 | 97.9 | 142 | 111
concentration: 1mM | 86.6 | 86.4 | 143 | 92.2

CCOS(C)(=O)=O [EMS (Ethyl methanesulfonate)]
relative viability [%]
Conditions | batch: 2, lab: Lab 1 | batch: 2, lab: Lab 2 | batch: 2, lab: Lab 3 | batch: 2, lab: Lab 4
concentration: 0.22mM | 95.4 | 105 | 98.2 | 103
concentration: 0.67mM | 91.7 | 98.1 | 96.6 | 92.6
concentration: 2mM | 85.2 | 84.6 | 67.7 | 80.4

CCN(N=O)C(N)=O [ENU (N-Nitroso-N-ethylurea)]
relative viability [%]
Conditions | batch: 2, lab: Lab 1 | batch: 2, lab: Lab 2 | batch: 2, lab: Lab 3 | batch: 2, lab: Lab 4
concentration: 0.056mM | 97.9 | 87.58 | 99.1 | 101
concentration: 0.167mM | 92.2 | 104 | 93.5 | 89.3
concentration: 0.5mM | 70.5 | 95.6 | 69.3 | 76.1

CCC1(c2ccccc2)C(=O)N=C([O-])NC1=O.[Na+] (centres undefined) [Phenobarbital sodium]
relative viability [%]
Conditions | batch: 4, lab: Lab 1 | batch: 4, lab: Lab 2 | batch: 4, lab: Lab 3 | batch: 4, lab: Lab 4
concentration: 0.11mM | 98.3 | 85.5 | 149 | 95.2
concentration: 0.33mM | 95.6 | 84.2 | 119 | 96.8
concentration: 1mM | 95.7 | 82.3 | 116 | 99.5

CN[C@@H]1C[C@H]2O[C@@](C)([C@@H]1OC)n1c3ccccc3c3c4c(c5c6ccccc6n2c5c31)C(=O)NC4 [Staurosporine]
relative viability [%]
Conditions | batch: 3, lab: Lab 1 | batch: 3, lab: Lab 2 | batch: 3, lab: Lab 3 | batch: 3, lab: Lab 4
concentration: 3nm | 104 | 114 | 130 | 97.4
concentration: 10nm | 103 | 99.1 | 111 | 91.4
concentration: 30nm | 97 | 69.7 | 69.7 | 73.9

CCN(CC)CCNC(=O)c1c(C)[nH]c(/C=C2\C(=O)Nc3ccc(F)cc32)c1C.O=C(O)C[C@H](O)C(=O)O [Sunitinib malate]
relative viability [%]
Conditions | batch: 2, lab: Lab 1 | batch: 2, lab: Lab 2 | batch: 2, lab: Lab 3 | batch: 2, lab: Lab 4
concentration: 2.22uM | 103 | 77.8 | 91.3 | 99.4
concentration: 6.67uM | 90.4 | 64.7 | 69 | 86.4
concentration: 20uM | 64.6 | 28.5 | 37 | 40.8
